Activity calls are given as the source filed them. Rule as the data show it, for most assays here: actives have a measured EC50 and inactives only a lower limit.
Assays:
[1] = test system: Streptococcus sp. 'group A'; test: growth inhibition of control SK(-) GAS strain, dose response, counter-screen for streptokinase expression inhibitor project, luminescence, kanamycin, BacTiterGlo, confirmation (AID 1900); format: functional, organism-based
Streptokinase A = biological target: T1, Streptokinase A (Streptococcus pyogenes serotype M1, UniProt P10520); test: S. pyogenes streptokinase expression inhibitors, potency, dose response, plasminogen activation absorbance, OD405 (AID 1914); format: functional, Streptococcus pyogenes M1 GAS;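 also: secreted streptokinase activity via plasminogen activation per viability signal from cell pellet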
T1 sequence (P10520 whole entry): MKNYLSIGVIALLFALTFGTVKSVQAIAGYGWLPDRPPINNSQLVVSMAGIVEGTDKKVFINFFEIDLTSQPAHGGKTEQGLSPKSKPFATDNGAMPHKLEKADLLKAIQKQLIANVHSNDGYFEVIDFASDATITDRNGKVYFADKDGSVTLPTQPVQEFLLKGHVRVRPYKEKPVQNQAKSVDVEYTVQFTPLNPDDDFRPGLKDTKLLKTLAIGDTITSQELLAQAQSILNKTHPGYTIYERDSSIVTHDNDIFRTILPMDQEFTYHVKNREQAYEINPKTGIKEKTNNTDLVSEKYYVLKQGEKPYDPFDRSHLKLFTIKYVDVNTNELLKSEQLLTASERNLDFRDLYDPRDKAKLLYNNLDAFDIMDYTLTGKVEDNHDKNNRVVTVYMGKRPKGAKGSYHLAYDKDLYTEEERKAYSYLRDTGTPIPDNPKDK

Streptococcus = test: Group A Streptococcus viability loss, dose response, counter-screen for streptokinase expression inhibitor project, luminescence, BacTiterGlo (AID 1915); format: functional, organism-based;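 also: potency for reduction of bacterial viability or growth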
[2] = inhibitors of intracellular T. cruzi replication, confirmation, NIH3T3 host cells, beta-gal luminescence (AID 2044); format: functional, cell-based;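 also: intracellular parasites grown in NIH/3T3 mouse fibroblasts as host cells; luminescent beta-galactosidase reporter signal from transgenic T. cruzi replicating inside host cells; inhibitors lower the luminescence signal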
[3] = cytotoxicity toward NIH3T3 fibroblasts, dose response, counter-screen, cell-based, ATP luminescence, mouse fibroblasts (AID 2010); format: functional;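 also: cells exposed to compound for about 90 hours before reading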
Cytochrome P450 1A2 = biological target: T2, Cytochrome P450 1A2 (Homo sapiens, UniProt P05177);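 also: PubChem cytochrome P450 panel assay, CYP1A2 panel member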
T2 sequence (P05177 whole entry): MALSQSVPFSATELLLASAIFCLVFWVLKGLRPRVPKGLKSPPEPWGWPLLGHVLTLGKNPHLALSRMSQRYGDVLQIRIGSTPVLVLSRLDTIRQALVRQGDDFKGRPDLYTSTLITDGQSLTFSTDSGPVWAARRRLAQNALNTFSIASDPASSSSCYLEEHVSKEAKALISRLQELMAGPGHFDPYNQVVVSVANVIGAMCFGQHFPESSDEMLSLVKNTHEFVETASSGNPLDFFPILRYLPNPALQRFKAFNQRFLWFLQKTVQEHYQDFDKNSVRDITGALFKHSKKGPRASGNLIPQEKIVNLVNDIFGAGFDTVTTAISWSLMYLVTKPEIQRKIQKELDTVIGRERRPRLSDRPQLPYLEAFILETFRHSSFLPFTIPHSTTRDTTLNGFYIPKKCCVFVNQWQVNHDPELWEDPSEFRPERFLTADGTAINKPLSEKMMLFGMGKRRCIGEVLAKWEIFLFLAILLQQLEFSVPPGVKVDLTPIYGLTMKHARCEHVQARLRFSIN

[4] = biological target: T3, Replicative DNA helicase DnaB (Mycobacterium tuberculosis, UniProt P9WMR3); test: DnaB intein splicing inhibitors, dose response, biochemical, cell-free fluorescence (AID 449749); format: functional
T3 sequence (P9WMR3 whole entry): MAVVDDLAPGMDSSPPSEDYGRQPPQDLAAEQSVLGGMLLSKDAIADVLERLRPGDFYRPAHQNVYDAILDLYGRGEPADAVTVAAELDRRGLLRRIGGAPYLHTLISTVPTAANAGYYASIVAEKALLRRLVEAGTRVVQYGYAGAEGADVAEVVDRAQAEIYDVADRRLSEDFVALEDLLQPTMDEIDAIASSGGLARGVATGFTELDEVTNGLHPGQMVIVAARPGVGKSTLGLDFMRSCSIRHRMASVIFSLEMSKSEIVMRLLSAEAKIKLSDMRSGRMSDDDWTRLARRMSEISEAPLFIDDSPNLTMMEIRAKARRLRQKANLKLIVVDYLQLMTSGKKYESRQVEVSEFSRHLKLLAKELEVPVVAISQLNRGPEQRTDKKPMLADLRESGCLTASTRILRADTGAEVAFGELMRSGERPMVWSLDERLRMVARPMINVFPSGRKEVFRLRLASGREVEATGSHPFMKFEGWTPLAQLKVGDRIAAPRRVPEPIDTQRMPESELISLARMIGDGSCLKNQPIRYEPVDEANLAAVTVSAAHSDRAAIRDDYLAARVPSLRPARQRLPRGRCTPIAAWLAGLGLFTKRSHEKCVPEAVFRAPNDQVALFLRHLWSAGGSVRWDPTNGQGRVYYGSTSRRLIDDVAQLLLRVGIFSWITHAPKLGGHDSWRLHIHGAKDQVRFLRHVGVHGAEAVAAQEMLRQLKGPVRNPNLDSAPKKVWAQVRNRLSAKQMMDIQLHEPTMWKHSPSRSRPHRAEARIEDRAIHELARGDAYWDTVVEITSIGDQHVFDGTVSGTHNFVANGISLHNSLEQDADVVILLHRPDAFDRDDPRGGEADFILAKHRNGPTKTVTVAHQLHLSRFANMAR

Protein RecA = biological target: T4, Protein RecA (Mycobacterium tuberculosis, UniProt P9WHJ3); test: Fluorescence Cell-Free Homogeneous Dose Retest to Identify Inhibitors of RecA-Intein Splicing Activity. [Related pubchem assays (depositor defined):AID2097, AID2223, AID489010, AID492950]; format: functional
T4 sequence (P9WHJ3 whole entry): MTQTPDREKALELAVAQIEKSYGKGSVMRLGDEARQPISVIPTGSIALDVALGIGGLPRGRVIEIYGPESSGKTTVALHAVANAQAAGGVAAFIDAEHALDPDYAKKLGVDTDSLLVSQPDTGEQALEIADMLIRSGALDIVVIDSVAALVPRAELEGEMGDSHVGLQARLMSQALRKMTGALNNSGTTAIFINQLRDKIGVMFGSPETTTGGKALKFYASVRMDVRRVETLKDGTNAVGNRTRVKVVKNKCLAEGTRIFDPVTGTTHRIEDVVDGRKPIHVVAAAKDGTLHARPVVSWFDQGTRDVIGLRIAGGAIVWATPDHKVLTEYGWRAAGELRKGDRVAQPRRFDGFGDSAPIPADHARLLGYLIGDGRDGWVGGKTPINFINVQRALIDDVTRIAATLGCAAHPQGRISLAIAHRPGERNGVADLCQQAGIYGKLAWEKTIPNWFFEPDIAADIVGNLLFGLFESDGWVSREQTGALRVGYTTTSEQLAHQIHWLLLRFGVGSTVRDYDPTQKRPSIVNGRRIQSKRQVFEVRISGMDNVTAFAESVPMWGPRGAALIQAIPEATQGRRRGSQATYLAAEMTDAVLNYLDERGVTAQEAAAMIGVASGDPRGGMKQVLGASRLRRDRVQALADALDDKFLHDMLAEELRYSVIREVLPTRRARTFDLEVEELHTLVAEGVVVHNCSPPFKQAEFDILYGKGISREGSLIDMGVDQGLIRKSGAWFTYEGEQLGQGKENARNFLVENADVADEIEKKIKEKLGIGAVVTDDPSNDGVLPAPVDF

SMILES: CCn1c(=S)sc2c(O)nc(SCC(=O)Nc3cc(OC)ccc3OC)nc21
- EC50 [1]: 6.33 µM (active)
- EC50 (Streptokinase A): 17.8 µM (inconclusive)
- EC50 (Streptococcus): > 150 µM (not active)

SMILES: O=C(c1cccs1)N1CCC(c2nc(O)c3nnn(Cc4ccccc4Cl)c3n2)CC1
- EC50 [1]: > 50 µM (not active)
- EC50 (Streptokinase A): > 150 µM (not active)
- EC50 (Streptococcus): > 50 µM (not active)

SMILES: OCCNc1nc(Nc2ccc(Br)cc2)nc2ccccc12
- EC50 [2]: 0.801 µM (active)
- EC50 [3]: > 30 µM (not active)

SMILES: O=C(O)COc1ccc(OCCNC[C@@H](O)COc2ccccc2)cc1
- AC50 (Cytochrome P450 1A2): 39.8 µM (inconclusive)

SMILES: O=C(NC(=S)Nc1ccc(-c2nc3ncccc3o2)cc1)c1ccccc1F
- EC50 [1]: 84.3 µM (active)
- EC50 (Streptokinase A): > 150 µM (not active)
- EC50 (Streptococcus): 21.3 µM (active)

SMILES: CCCc1n[nH]c2c1C(c1cccc(OC)c1)C(C#N)=C(N)O2 (configuration not stated)
- AC50 [4]: 19.3 µM (active)
- EC50 (Protein RecA): 9.09 µM (active)

SMILES: Clc1cccc(Nc2ncnc3c2cnn3-c2ccccc2)c1
- EC50 [1]: 7.78 µM (active)
- EC50 (Streptokinase A): > 150 µM (not active)
- EC50 (Streptococcus): 6.82 µM (active)

SMILES: c1ccc(CCNc2ccccn2)nc1
- AC50 (Cytochrome P450 1A2): 5.01 µM (inconclusive)

SMILES: CCN1C(=O)C(=NNc2cccc(S(=O)(=O)N3CCOCC3)c2)C(=O)N(CC)C1=S
- AC50 [4]: > 380 µM (inactive)
- EC50 (Protein RecA): > 380 µM (inconclusive)

SMILES: CCOC(=O)Cc1n[nH]c2c1C(c1ccsc1)C(C#N)=C(N)O2 (configuration not stated)
- AC50 [4]: > 380 µM (inactive)
- EC50 (Protein RecA): 31.3 µM (active)

SMILES: CCOC(=O)C1=C(C)NC(C)=C(C(=O)OC)[C@@H]1c1cccc([N+](=O)[O-])c1 [(S)-NITRENDIPINE]
- AC50 (Cytochrome P450 1A2): 15.8 µM (inconclusive)

SMILES: Cc1cccn2c(CNCC3(c4ccccc4)CCCC3)c(C(=O)N3CCOCC3)nc12
- AC50 [4]: > 380 µM (inactive)
- EC50 (Protein RecA): > 380 µM (inactive)

SMILES: Cc1ccc(NC(=S)NC(=O)c2c(-c3ccccc3Cl)noc2C)cc1
- AC50 (Cytochrome P450 1A2): 8.91 µM (inconclusive)

SMILES: COc1ccc(Br)cc1C(=O)Nc1ccc(Cc2ccncc2)cc1
- EC50 [2]: 3.4 µM (active)
- EC50 [3]: > 60 µM (not active)

SMILES: CCCC(=O)OCCNc1cc(SCc2ccco2)c2nonc2c1[N+](=O)[O-]
- AC50 [4]: 4.88 µM (active)
- EC50 (Protein RecA): 1.98 µM (active)

SMILES: COCCn1c(=O)c(-c2cc(F)cc(F)c2)nc2cnc(Nc3cccc(OC)c3)nc21
- AC50 (Cytochrome P450 1A2): 2.51 µM (inconclusive)

SMILES: CCOC(=O)c1cc(-c2ccc(F)cc2)n(CCC(=O)NC2CCN(Cc3ccccc3)CC2)c1C
- EC50 [2]: 0.773 µM (active)
- EC50 [3]: > 60 µM (not active)

SMILES: CCC[C@@H]1C[C@@]1(CCC)C(NC(=O)c1ccco1)c1ccc(Cl)cc1 (some centres not stated)
- AC50 (Cytochrome P450 1A2): 25.1 µM (inconclusive)

SMILES: O=C(CCc1ccccc1)Nc1nnc(-c2ccc3c(c2)CCCC3)o1
- EC50 [1]: 3.21 µM (active)
- EC50 (Streptokinase A): > 150 µM (not active)
- EC50 (Streptococcus): 26.2 µM (active)

SMILES: C=C1S/C(=N/c2ccccc2Cl)N(C(=O)c2sc3ccccc3c2Cl)C12CCCCC2
- EC50 [1]: 20.2 µM (active)
- EC50 (Streptokinase A): 19.8 µM (active)
- EC50 (Streptococcus): > 150 µM (not active)

SMILES: O=C(/C=C\c1ccc(Cl)cc1)N[C@@]12CCC(=O)[C@@H]3Oc4c(O)ccc5c4[C@@]31CCN(CC1CC1)[C@@H]2C5
- AC50 (Cytochrome P450 1A2): 39.8 µM (inconclusive)

SMILES: O=[N+]([O-])C(/C=C(/Cl)[N+](=O)[O-])=C(N1CCCCC1)N1CCCCC1
- EC50 [2]: 1.25 µM (active)
- AC50 [4]: 14.5 µM (active)
- EC50 (Protein RecA): 8.34 µM (active)

SMILES: CN1CCN(c2nc(-c3ccccc3)nc(-c3ccc(F)cc3)c2C#N)CC1
- EC50 [2]: 1.25 µM (active)
- EC50 [3]: > 60 µM (not active)

SMILES: COc1ccc(N=Nc2cc(-c3ccccc3)ccc2O)cc1
- EC50 [1]: 34.7 µM (active)
- EC50 (Streptokinase A): 7.22 µM (active)
- EC50 (Streptococcus): > 150 µM (not active)

SMILES: COC(=O)CSc1nc2sc3c(c2c(=O)n1C1CCCCC1)CCN(C)C3
- AC50 [4]: > 120 µM (inactive)
- EC50 (Protein RecA): 31.4 µM (active)

SMILES: CN(N)C(S)=Nc1ccc(Cl)cc1
- AC50 [4]: > 380 µM (inactive)
- EC50 (Protein RecA): > 380 µM (inactive)

SMILES: Nc1nc(-c2ccc(Br)cc2)c(S(=O)(=O)c2ccccc2)s1
- AC50 [4]: 4.22 µM (active)
- EC50 (Protein RecA): > 380 µM (inactive)

SMILES: CS(=O)(=O)N1CCC2(CC1)CN(c1ccccc1)C2
- AC50 (Cytochrome P450 1A2): 20 µM (inconclusive)

SMILES: CCOc1cc(/C=N\NC(=O)OC(C)(C)C)ccc1OC(=O)c1ccco1
- AC50 [4]: 12.8 µM (active)
- EC50 (Protein RecA): 19.8 µM (active)

SMILES: CSc1ccc(NC(=O)Nc2cccn(Cc3ccccc3F)c2=O)cc1
- EC50 [2]: 4.33 µM (active)
- EC50 [3]: > 60 µM (not active)

SMILES: COc1ccc(C2=NN(C(=O)/C=C/c3ccccc3)C(c3ccccc3)C2)c(OC(C)=O)c1 (configuration not stated)
- AC50 [4]: > 380 µM (inactive)
- EC50 (Protein RecA): 53.8 µM (active)

SMILES: CN(C)CCNC(=O)c1cc(Sc2ccc(F)cc2)nc2ccccc12
- EC50 [2]: 0.282 µM (active)
- EC50 [3]: > 60 µM (not active)

SMILES: C=C(C)c1cccc(C(C)(C)NC(=O)NC2CCN(Cc3ccccc3)CC2)c1
- EC50 [2]: 0.103 µM (active)
- EC50 [3]: > 60 µM (not active)

SMILES: Cc1ccc(NC(=O)C2CCCN(C(=O)c3ccc(Cl)cc3)C2)cc1S(=O)(=O)N1CCOCC1 (configuration not stated)
- EC50 [2]: 26.6 µM (active)
- EC50 [3]: > 60 µM (not active)

SMILES: COc1ccc(C2CC(c3ccccc3)=NN2c2ccc(S(N)(=O)=O)cc2)cc1 (configuration not stated)
- EC50 [2]: 2.83 µM (active)
- EC50 [3]: > 60 µM (inconclusive)

SMILES: CCOC(=O)c1cc(-c2ccc(OC(F)F)cc2)nc2c1c(=O)[nH]c(=O)n2C
- EC50 [1]: 0.458 µM (active)
- EC50 (Streptococcus): 1.97 µM (active)
